# In patent US20150133297A1, “NEW ANTIFUNGAL COMPOSITIONS” (DSM IP ASSETS B.V., priority 2012, published 2015):
# Where “and” joins values, the source holds several entries; their conditions need not be identical. Equal entries are not always repeated.
# Tests used:
# Penicillium italicum = assay: Treatment of oranges (Examples 6-9): wounded, inoculated, wound treated with antifungal composition; assay type: in vivo; settings: for Observed antifungal activity O (%): oranges, 20° C.
# Protocol: During incubation, mould growth on the strawberries was assessed in a twofold manner: (i) the number of moulded strawberries per total of 12 strawberries was counted; and (ii) the antifungal activity (in %) of the individual and combined active ingredients was determined by calculating the reduction in mould growth observed on the strawberries treated with the antifungal composition in comparison to the mould growth on the strawberries treated with the control composition. The expected antifungal activity (E in %) of the combined antifungal composition comprising both active ingredients was calculated according to the Colby equation (Colby, 1967): […]
# Eight fresh, organic oranges were used per treatment. Each orange was soaked in a 180 ppm hypochlorite solution for 10 minutes, then rinsed thoroughly with fresh tap water and dried. The peel of each disinfected orange was wounded once using a cork borer according to the method described by de Lapeyre de Bellaire and Dubois (1987). Subsequently, each wound was inoculated with 10 μl of a Penicillium italicum suspension containing 5×10^5 of spores/ml. After incubation for 3 hours at 20° C., each wound and the orange peel area of 1 cm around the wound was treated with in total 150 μl of a freshly prepared aqueous antifungal composition comprising either 500 ppm natamycin (DSM Food Specialties, Delft, The Netherlands), 500 ppm fenpropidin or both. Each antifungal composition also comprised 3.2% (w/w) beeswax, 0.8% (w/w) glycerol, 0.7% (w/w) polyoxyethylene sorbitan monostearate (Tween 60), 0.1% (w/w) polyoxyethylene sorbitan monooleate (Tween 80), 0.05% (w/w) methylhydroxyethyl-cellulose (MHEC), 0.03% (w/w) anti-foaming agent, 0.02% (w/w) xanthan gum, 0.02% (w/w) citric acid, 0.01% (w/w) lactic acid and 0.01% potassium sorbate. A composition without natamycin or fenpropidin was used as control. […] The treated oranges were incubated in a closed box in the dark at 20° C. and assessed on mould growth during a 28-day incubation period. The antifungal activity (in %) of the individual and combined active ingredients was determined by calculating the reduction in mould growth observed on the oranges treated with the antifungal composition in comparison to the mould growth on the oranges treated with the control composition according to the Colby method (Colby, 1967) as described in Example 5.
# (§1) The experiment was conducted as described in Example 6, except for the fact that each wounded and inoculated orange was treated with 150 μl of a freshly prepared aqueous antifungal composition comprising either 250 ppm natamycin (DSM Food Specialties, Delft, The Netherlands), 250 ppm fenpropidin or both. During the 26-day incubation period, the treated oranges were assessed on mould growth according to the two methods described in Example 5.
# as §1, with “either 500” for “either 250”, “Netherlands), 400” for “Netherlands), 250”, “ppm spiroxamine” for “ppm fenpropidin”
# as §1, with “Netherlands), 200” for “Netherlands), 250”, “ppm spiroxamine” for “ppm fenpropidin”
# Botrytis cinerea = assay: Treatment of strawberries (Example 5): wounded, inoculated, dipped in antifungal composition; assay type: in vivo; settings: 500 ppm natamycin, 600 ppm fenpropidin or both
# Protocol: Twelve fresh, organic strawberries were used per treatment. Each strawberry was wounded with a 0.5 mm long cut and each wound was inoculated with 10 μl of a Botrytis cinerea suspension containing 1×10^5 of spores/ml. […] A composition without natamycin or fenpropidin was used as control. […] The treated strawberries were incubated in a closed box in the dark at 20° C. for 9 days. During incubation, mould growth on the strawberries was assessed in a twofold manner: […] The expected antifungal activity (E in %) of the combined antifungal composition comprising both active ingredients was calculated according to the Colby equation (Colby, 1967): […] wherein X and Y are the observed antifungal activities (in %) of the individual active ingredients X and Y, respectively.
# [1] = Day 11, 20° C., 250 ppm natamycin, 200 ppm spiroxamine or both
# [2] = Day 12, 20° C., 250 ppm natamycin, 200 ppm spiroxamine or both
# [3] = Day 13, 20° C., 250 ppm natamycin, 200 ppm spiroxamine or both
# [4] = Day 14-15, 20° C., 250 ppm natamycin, 200 ppm spiroxamine or both
# [5] = Day 14-16, 20° C., 500 ppm natamycin, 400 ppm spiroxamine or both
# [6] = Day 16, 20° C., 250 ppm natamycin, 200 ppm spiroxamine or both
# [7] = Day 18, 20° C., 250 ppm natamycin, 200 ppm spiroxamine or both
# [8] = Day 18, 20° C., 500 ppm natamycin, 400 ppm spiroxamine or both
# [9] = Day 19-21, 20° C., 500 ppm natamycin, 400 ppm spiroxamine or both
# [10] = Day 19-25, 20° C., 250 ppm natamycin, 200 ppm spiroxamine or both
# [11] = Day 22-23, 20° C., 500 ppm natamycin, 400 ppm spiroxamine or both
# [12] = Day 26, 20° C., 250 ppm natamycin, 200 ppm spiroxamine or both
# [13] = days 19 through 26, 250 ppm natamycin, 200 ppm spiroxamine or both
# [14] = day 11, 250 ppm natamycin, 200 ppm spiroxamine or both
# [15] = day 12, 250 ppm natamycin, 200 ppm spiroxamine or both
# [16] = day 13, 250 ppm natamycin, 200 ppm spiroxamine or both
# [17] = day 14, 250 ppm natamycin, 200 ppm spiroxamine or both
# [18] = day 15, 250 ppm natamycin, 200 ppm spiroxamine or both
# [19] = day 16, 250 ppm natamycin, 200 ppm spiroxamine or both
# [20] = day 18, 250 ppm natamycin, 200 ppm spiroxamine or both
# [21] = day 18, 500 ppm natamycin, 400 ppm spiroxamine or both
# [22] = day 19, 250 ppm natamycin, 200 ppm spiroxamine or both
# [23] = day 19, 500 ppm natamycin, 400 ppm spiroxamine or both
# [24] = day 20, 250 ppm natamycin, 200 ppm spiroxamine or both
# [25] = day 20, 500 ppm natamycin, 400 ppm spiroxamine or both
# [26] = day 21, 250 ppm natamycin, 200 ppm spiroxamine or both
# [27] = day 21, 500 ppm natamycin, 400 ppm spiroxamine or both
# [28] = day 22, 250 ppm natamycin, 200 ppm spiroxamine or both
# [29] = day 22, 500 ppm natamycin, 400 ppm spiroxamine or both
# [30] = day 23, 250 ppm natamycin, 200 ppm spiroxamine or both
# [31] = day 23, 500 ppm natamycin, 400 ppm spiroxamine or both
# [32] = day 25-26, 500 ppm natamycin, 400 ppm spiroxamine or both
# [33] = day 25, 250 ppm natamycin, 200 ppm spiroxamine or both
# [34] = day 26, 250 ppm natamycin, 200 ppm spiroxamine or both
smiles,measurement,setting,value
"C[C@@H]1C/C=C/C=C/C=C/C=C/[C@H](O[C@@H]2O[C@H](C)[C@@H](O)[C@H](N)[C@@H]2O)C[C@@H]2O[C@](O)(C[C@@H](O)C[C@H]3O[C@@H]3/C=C/C(=O)O1)C[C@H](O)[C@H]2C(=O)O [Natamycin, natamycin]",Number of moulded oranges/total number of 8 oranges,Penicillium italicum; [1],5 and 5/8
same,Number of moulded oranges/total number of 8 oranges,Penicillium italicum; [2],5 and 5/8
same,Number of moulded oranges/total number of 8 oranges,Penicillium italicum; [3],5/8
same,Number of moulded oranges/total number of 8 oranges,Penicillium italicum; [4],6/8
same,Number of moulded oranges/total number of 8 oranges,Penicillium italicum; [5],5/8
same,Number of moulded oranges/total number of 8 oranges,Penicillium italicum; [6],6 and 6/8
same,Number of moulded oranges/total number of 8 oranges,Penicillium italicum; [7],6 and 6/8
same,Number of moulded oranges/total number of 8 oranges,"Penicillium italicum; Day 18, 20° C., 250 ppm natamycin, 250 ppm fenpropidin or both",6/8
same,Number of moulded oranges/total number of 8 oranges,Penicillium italicum; [8],6/8
same,Number of moulded oranges/total number of 8 oranges,"Penicillium italicum; Day 19, 20° C., 250 ppm natamycin, 250 ppm fenpropidin or both",7/8
same,Number of moulded oranges/total number of 8 oranges,Penicillium italicum; [9],6 and 6/8
same,Number of moulded oranges/total number of 8 oranges,Penicillium italicum; [10],7/8
same,Number of moulded oranges/total number of 8 oranges,"Penicillium italicum; Day 20, 20° C., 250 ppm natamycin, 250 ppm fenpropidin or both",7/8
same,Number of moulded oranges/total number of 8 oranges,"Penicillium italicum; Day 21-22, 20° C., 250 ppm natamycin, 250 ppm fenpropidin or both",7 and 7/8
same,Number of moulded oranges/total number of 8 oranges,Penicillium italicum; [11],6 and 6/8
same,Number of moulded oranges/total number of 8 oranges,"Penicillium italicum; Day 23-26, 20° C., 250 ppm natamycin, 250 ppm fenpropidin or both",7 and 7/8
same,Number of moulded oranges/total number of 8 oranges,Penicillium italicum; [12],7/8
same,moulded oranges of the 8 oranges,Penicillium italicum; [13],7
same,Observed antifungal activity O (%),Penicillium italicum; [14],80%
same,Observed antifungal activity O (%),Penicillium italicum; [15],73%
same,Observed antifungal activity O (%),Penicillium italicum; [16],63%
same,Observed antifungal activity O (%),Penicillium italicum; [17],50%
same,Observed antifungal activity O (%),Penicillium italicum; [18],46%
same,Observed antifungal activity O (%),Penicillium italicum; [19],43%
same,Observed antifungal activity O (%),Penicillium italicum; [20],41%
same,Observed antifungal activity O (%),"Penicillium italicum; day 18, 250 ppm natamycin, 250 ppm fenpropidin or both",41%
same,Observed antifungal activity O (%),Penicillium italicum; [21],32%
same,Observed antifungal activity O (%),Penicillium italicum; [22],36%
same,Observed antifungal activity O (%),"Penicillium italicum; day 19, 250 ppm natamycin, 250 ppm fenpropidin or both",36%
same,Observed antifungal activity O (%),Penicillium italicum; [23],29%
same,Observed antifungal activity O (%),Penicillium italicum; [24],34%
same,Observed antifungal activity O (%),"Penicillium italicum; day 20, 250 ppm natamycin, 250 ppm fenpropidin or both",34%
same,Observed antifungal activity O (%),Penicillium italicum; [25],20%
same,Observed antifungal activity O (%),Penicillium italicum; [26],32%
same,Observed antifungal activity O (%),"Penicillium italicum; day 21, 250 ppm natamycin, 250 ppm fenpropidin or both",32%
same,Observed antifungal activity O (%),Penicillium italicum; [27],16%
same,Observed antifungal activity O (%),Penicillium italicum; [28],29%
same,Observed antifungal activity O (%),"Penicillium italicum; day 22, 250 ppm natamycin, 250 ppm fenpropidin or both",29%
same,Observed antifungal activity O (%),Penicillium italicum; [29],14%
same,Observed antifungal activity O (%),"Penicillium italicum; day 22, 500 ppm natamycin, 500 ppm fenpropidin or both",14%
same,Observed antifungal activity O (%),Penicillium italicum; [30],25%
same,Observed antifungal activity O (%),"Penicillium italicum; day 23, 250 ppm natamycin, 250 ppm fenpropidin or both",25%
same,Observed antifungal activity O (%),Penicillium italicum; [31],14%
same,Observed antifungal activity O (%),"Penicillium italicum; day 23, 500 ppm natamycin, 500 ppm fenpropidin or both",14%
same,Observed antifungal activity O (%),Penicillium italicum; [32],14%
same,Observed antifungal activity O (%),Penicillium italicum; [33],19%
same,Observed antifungal activity O (%),"Penicillium italicum; day 25, 250 ppm natamycin, 250 ppm fenpropidin or both",19%
same,Observed antifungal activity O (%),"Penicillium italicum; day 25, 500 ppm natamycin, 500 ppm fenpropidin or both",14%
same,Observed antifungal activity O (%),Penicillium italicum; [34],17%
same,Observed antifungal activity O (%),"Penicillium italicum; day 26, 250 ppm natamycin, 250 ppm fenpropidin or both",17%
same,Observed antifungal activity O (%),"Penicillium italicum; day 26, 500 ppm natamycin, 500 ppm fenpropidin or both",14%
same,Observed antifungal activity O (%),"Penicillium italicum; day 27, 500 ppm natamycin, 500 ppm fenpropidin or both",14%
same,Observed antifungal activity O (%),"Penicillium italicum; day 28, 500 ppm natamycin, 500 ppm fenpropidin or both",14%
same,Number of moulded strawberries/total number of 12 strawberries,"Botrytis cinerea; Day 5, 20° C.",11
same,Number of moulded strawberries/total number of 12 strawberries,"Botrytis cinerea; Day 6, 20° C.",12
"CCCN(CC)CC1COC2(CCC(C(C)(C)C)CC2)O1 (stereo not shown) [Spiroxamine, spiroxamine]",Number of moulded oranges/total number of 8 oranges,Penicillium italicum; [1],7 and 7/8
same,Number of moulded oranges/total number of 8 oranges,Penicillium italicum; [2],8 and 8/8
same,Number of moulded oranges/total number of 8 oranges,Penicillium italicum; [3],8/8
same,Number of moulded oranges/total number of 8 oranges,Penicillium italicum; [4],8/8
same,Number of moulded oranges/total number of 8 oranges,Penicillium italicum; [5],8/8
same,Number of moulded oranges/total number of 8 oranges,Penicillium italicum; [6],8 and 8/8
same,Number of moulded oranges/total number of 8 oranges,Penicillium italicum; [7],8 and 8/8
same,Number of moulded oranges/total number of 8 oranges,Penicillium italicum; [8],8/8
same,Number of moulded oranges/total number of 8 oranges,Penicillium italicum; [9],8 and 8/8
same,Number of moulded oranges/total number of 8 oranges,Penicillium italicum; [10],8/8
same,Number of moulded oranges/total number of 8 oranges,Penicillium italicum; [11],8 and 8/8
same,Number of moulded oranges/total number of 8 oranges,Penicillium italicum; [12],8/8
same,moulded oranges of the 8 oranges,"Penicillium italicum; after 14 through 16 days and 18 days of incubation, 500 ppm natamycin, 400 ppm spiroxamine",8
same,moulded oranges of the 8 oranges,"Penicillium italicum; days 13 through 15, 250 ppm natamycin, 200 ppm spiroxamine or both",8
same,moulded oranges of the 8 oranges,Penicillium italicum; [13],8
same,Observed antifungal activity O (%),Penicillium italicum; [14],75%
same,Observed antifungal activity O (%),Penicillium italicum; [15],64%
same,Observed antifungal activity O (%),Penicillium italicum; [16],48%
same,Observed antifungal activity O (%),Penicillium italicum; [17],39%
same,Observed antifungal activity O (%),Penicillium italicum; [18],31%
same,Observed antifungal activity O (%),Penicillium italicum; [19],20%
same,Observed antifungal activity O (%),Penicillium italicum; [20],3%
same,Observed antifungal activity O (%),Penicillium italicum; [21],22%
same,Observed antifungal activity O (%),Penicillium italicum; [22],0%
same,Observed antifungal activity O (%),Penicillium italicum; [23],8%
same,Observed antifungal activity O (%),Penicillium italicum; [24],0%
same,Observed antifungal activity O (%),Penicillium italicum; [25],0%
same,Observed antifungal activity O (%),Penicillium italicum; [26],0%
same,Observed antifungal activity O (%),Penicillium italicum; [27],0%
same,Observed antifungal activity O (%),Penicillium italicum; [28],0%
same,Observed antifungal activity O (%),Penicillium italicum; [29],0%
same,Observed antifungal activity O (%),Penicillium italicum; [30],0%
same,Observed antifungal activity O (%),Penicillium italicum; [31],0%
same,Observed antifungal activity O (%),Penicillium italicum; [32],0%
same,Observed antifungal activity O (%),Penicillium italicum; [33],0%
same,Observed antifungal activity O (%),Penicillium italicum; [34],0%
